By EC50 is commonly meant the concentration giving half of the maximal effect. Lower therefore signals greater potency.

SMILES strings stand for the structures. Starred links: 1 amine or outer side, 2 acyl side, 3 side chain; linkers in the order of their positions; H or OH if unused. Non-standard residues stand in square brackets, D forms with d. Residues, ends and D or L forms follow the SMILES beside them. Groups on a side chain read outwards from the residue. *: point of attachment. C20 diacid = O=C(O)CCCCCCCCCCCCCCCCCCC(=O)*; C18 diacid = O=C(O)CCCCCCCCCCCCCCCCC(=O)*; d(βAsp) = O=C(O)[C@@H](CC(=O)[*:2])N[*:1]; AEEA = NCCOCCOCC(=O)O; Aib = CC(C)(N)C(=O)O; Inp = O=C(O)C1CCNCC1; Bn = c1ccc(C*)cc1

Our source for the EC50 values is patent US9067977B2, “Peptides derivatized with A-B-C-D- and their therapeutical use” (Novo Nordisk A/S, priority 2007, dated 2015).

This series has as its target human serum albumin (HSA) (Homo sapiens, UniProt P02768). The series is described as follows: Albumin binding affinity, competition scintillation proximity assay. In general terms: Scintillation proximity formats need no separation of bound from free tracer.

human serum albumin (HSA), sequence (P02768 25-609): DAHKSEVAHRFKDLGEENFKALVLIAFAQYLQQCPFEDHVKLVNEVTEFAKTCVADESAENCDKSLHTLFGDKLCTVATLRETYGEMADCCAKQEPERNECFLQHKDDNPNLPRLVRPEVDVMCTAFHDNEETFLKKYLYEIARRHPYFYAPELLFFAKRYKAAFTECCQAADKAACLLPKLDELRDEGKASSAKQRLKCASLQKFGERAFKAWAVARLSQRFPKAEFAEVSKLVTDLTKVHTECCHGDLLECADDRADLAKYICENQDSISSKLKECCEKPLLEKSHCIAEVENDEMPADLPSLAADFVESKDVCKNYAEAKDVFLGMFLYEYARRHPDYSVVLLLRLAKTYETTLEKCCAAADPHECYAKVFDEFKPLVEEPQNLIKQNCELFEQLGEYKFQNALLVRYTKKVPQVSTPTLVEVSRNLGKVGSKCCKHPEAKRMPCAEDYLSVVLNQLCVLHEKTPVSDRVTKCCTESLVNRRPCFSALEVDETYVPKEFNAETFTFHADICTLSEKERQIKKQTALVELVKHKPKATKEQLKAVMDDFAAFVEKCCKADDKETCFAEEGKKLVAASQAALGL
Experimental: Streptavidin-SPA beads (GE Healthcare RPNQ0009) were incubated with biotinylated HSA for 5 hours. The beads were washed with buffer to remove unbound HSA. […] After 20 hours of gentle rocking at room temperature the plates were centrifuged and counted on a TopCounter.

For the molecule `CC[C@H](C)[C@H](NC(=O)[C@H](Cc1ccccc1)NC(=O)[C@H](CCC(=O)O)NC(=O)[C@H](CCCNC(=N)N)NC(=O)[C@H](C)NC(=O)[C@H](C)NC(=O)[C@H](CCC(N)=O)NC(=O)[C@H](CCC(=O)O)NC(=O)[C@H](CCC(=O)O)NC(=O)[C@H](CC(C)C)NC(=O)[C@H](Cc1ccc(O)cc1)NC(=O)[C@H](CO)NC(=O)[C@H](CO)NC(=O)[C@@H](NC(=O)[C@H](CC(=O)O)NC(=O)[C@H](CO)NC(=O)[C@@H](NC(=O)[C@H](Cc1ccccc1)NC(=O)[C@@H](NC(=O)CNC(=O)[C@H](CCC(=O)O)NC(=O)[C@H](C)NC(=O)CCc1c[nH]cn1)[C@@H](C)O)[C@@H](C)O)C(C)C)C(=O)N[C@@H](C)C(=O)N[C@@H](Cc1c[nH]c2ccccc12)C(=O)N[C@@H](CC(C)C)C(=O)N[C@H](C(=O)N[C@@H](CCCNC(=N)N)C(=O)NCC(=O)N[C@@H](CCCNC(=N)N)C(=O)N[C@@H](CCCCNC(=O)COCCOCCNC(=O)COCCOCCNC(=O)C[C@@H](NC(=O)C1CCN(C(=O)CCCCCCCCCCCCCCCCCCC(=O)O)CC1)C(=O)O)C(N)=O)C(C)C` [Example 1, N-ε^37{2-[2-(2-{2-[2-((R)-3-carboxy-3-{[1-(19-carboxynonadecanoyl)piperidine-4-carbonyl]amino}propionylamino)ethoxy]ethoxy}acetylamino)ethoxy]ethoxy}acetyl [desaminoHis^7,Glu^22,Arg^26,Arg^34,Lys^37]GLP-1(7-37)amide], the EC50 fell in the range of 300 to 800 nM.

As to `CC[C@H](C)[C@H](NC(=O)[C@H](Cc1ccccc1)NC(=O)[C@H](CC(C)C)NC(=O)[C@H](CCCCNC(=O)COCCOCCNC(=O)COCCOCCNC(=O)C[C@@H](NC(=O)C1CCN(C(=O)CCCCCCCCCCCCCCCCCCC(=O)O)CC1)C(=O)O)NC(=O)[C@@H](NC(=O)[C@H](C)NC(=O)[C@H](CCC(=O)O)NC(=O)[C@H](CCC(=O)O)NC(=O)[C@H](CCC(=O)O)NC(=O)[C@H](CC(C)C)NC(=O)[C@H](CCC(N)=O)NC(=O)[C@H](CCCCN)NC(=O)[C@H](CO)NC(=O)[C@H](CC(C)C)NC(=O)[C@H](CC(=O)O)NC(=O)[C@H](CO)NC(=O)[C@@H](NC(=O)[C@H](Cc1ccccc1)NC(=O)[C@@H](NC(=O)CNC(=O)[C@H](CCC(=O)O)NC(=O)C(C)(C)NC(=O)[C@@H](N)Cc1c[nH]cn1)[C@@H](C)O)[C@@H](C)O)C(C)C)C(=O)N[C@@H](CCC(=O)O)C(=O)N[C@@H](Cc1c[nH]c2ccccc12)C(=O)N[C@@H](CC(C)C)C(=O)N[C@@H](CCCCN)C(=O)N[C@@H](CCC(N)=O)C(=O)NCC(=O)NCC(=O)N1CCC[C@H]1C(=O)N[C@@H](CO)C(=O)N[C@@H](CO)C(=O)NCC(=O)N[C@@H](C)C(=O)N1CCC[C@H]1C(=O)N1CCC[C@H]1C(=O)N1CCC[C@H]1C(=O)N[C@@H](COCc1ccccc1)C(N)=O` [Example 2, N-ε^20-{2-[2-(2-{2-[2-((R)-3-carboxy-3-{[1-(19-carboxynonadecanoyl)piperidine-4-carbonyl]amino}propionylamino)ethoxy]ethoxy}acetylamino)ethoxy]ethoxy}acetyl [Aib^2,Leu^14,Lys^20,Gln^28,Ser(O-benzyl)^39] exendin-4 (1-39)amide] (H-H[Aib]EGTFTSDLSKQLEEEAVK([AEEA-AEEA-d(βAsp)-Inp-C20 diacid])LFIEWLKQGGPSSGAPPPS(Bn)-NH2), the EC50 fell in the range of 300 to 800 nM.

In the case of `CC[C@H](C)[C@H](NC(=O)[C@H](Cc1ccccc1)NC(=O)[C@H](CCC(=O)O)NC(=O)[C@H](CCCNC(=N)N)NC(=O)[C@H](C)NC(=O)[C@H](C)NC(=O)[C@H](CCC(N)=O)NC(=O)[C@H](CCC(=O)O)NC(=O)[C@H](CCC(=O)O)NC(=O)[C@H](CC(C)C)NC(=O)[C@H](Cc1ccc(O)cc1)NC(=O)[C@H](CO)NC(=O)[C@H](CO)NC(=O)[C@@H](NC(=O)[C@H](CC(=O)O)NC(=O)[C@H](CO)NC(=O)[C@@H](NC(=O)[C@H](Cc1ccccc1)NC(=O)[C@@H](NC(=O)CNC(=O)[C@H](CCC(=O)O)NC(=O)C(C)(C)NC(=O)[C@@H](N)Cc1c[nH]cn1)[C@@H](C)O)[C@@H](C)O)C(C)C)C(=O)N[C@@H](C)C(=O)N[C@@H](Cc1c[nH]c2ccccc12)C(=O)N[C@@H](CC(C)C)C(=O)N[C@H](C(=O)N[C@@H](CCCNC(=N)N)C(=O)NCC(=O)N[C@@H](CCCNC(=N)N)C(=O)N[C@@H](CCCCNC(=O)COCCOCCNC(=O)COCCOCCNC(=O)C[C@H](NC(=O)C1CCN(C(=O)CCCCCCCCCCCCCCCCCCC(=O)O)CC1)C(=O)O)C(N)=O)C(C)C` [Example 4, N-epsilon37{2-[2-(2-{2-[2-((S)-3-carboxy-3-{[1-(19-carboxynonadecanoyl)piperidine-4-carbonyl]amino}propionylamino)ethoxy]ethoxy}acetylamino)ethoxy]ethoxy}acetyl [Aib8,Glu22,Arg26,Arg34,Lys37]GLP-1-(7-37)amide], the EC50 is 300 to 800 nM.

In turn, `CC[C@H](C)[C@H](NC(=O)[C@H](Cc1ccccc1)NC(=O)[C@H](CCC(=O)O)NC(=O)[C@H](CCCNC(=N)N)NC(=O)[C@H](C)NC(=O)[C@H](C)NC(=O)[C@H](CCCCNC(=O)COCCOCCNC(=O)COCCOCCNC(=O)C[C@@H](NC(=O)C1CCN(C(=O)CCCCCCCCCCCCCCCCC(=O)O)CC1)C(=O)O)NC(=O)CNC(=O)[C@H](CCC(=O)O)NC(=O)[C@H](CC(C)C)NC(=O)[C@H](Cc1ccc(O)cc1)NC(=O)[C@H](CO)NC(=O)[C@H](CO)NC(=O)[C@@H](NC(=O)[C@H](CC(=O)O)NC(=O)[C@H](CO)NC(=O)[C@@H](NC(=O)[C@H](Cc1ccccc1)NC(=O)[C@@H](NC(=O)CNC(=O)[C@H](CCC(=O)O)NC(=O)C(C)(C)NC(=O)[C@@H](N)Cc1c[nH]cn1)[C@@H](C)O)[C@@H](C)O)C(C)C)C(=O)N[C@@H](C)C(=O)N[C@@H](Cc1c[nH]c2ccccc12)C(=O)N[C@@H](CC(C)C)C(=O)N[C@H](C(=O)N[C@@H](CCCNC(=N)N)C(=O)NCC(=O)N[C@@H](CCCNC(=N)N)C(=O)NCC(=O)O)C(C)C` [Example 5] (H-H[Aib]EGTFTSDVSSYLEGK([AEEA-AEEA-d(βAsp)-Inp-C18 diacid])AAREFIAWLVRGRG-OH) had an EC50 of 300 to 800 nM.

As to `CC[C@H](C)[C@H](NC(=O)[C@H](Cc1cccc(C(F)(F)F)c1)NC(=O)[C@H](CCC(=O)O)NC(=O)[C@H](CCCNC(=N)N)NC(=O)[C@H](C)NC(=O)[C@H](C)NC(=O)[C@H](CCC(N)=O)NC(=O)[C@H](CCC(=O)O)NC(=O)[C@H](CCC(=O)O)NC(=O)[C@H](CC(C)C)NC(=O)[C@H](Cc1ccc(O)cc1)NC(=O)[C@H](CO)NC(=O)[C@H](CO)NC(=O)[C@@H](NC(=O)[C@H](CC(=O)O)NC(=O)[C@H](CO)NC(=O)[C@@H](NC(=O)[C@H](Cc1ccccc1)NC(=O)[C@@H](NC(=O)CNC(=O)[C@H](CCC(=O)O)NC(=O)[C@H](C)NC(=O)CCc1c[nH]cn1)[C@@H](C)O)[C@@H](C)O)C(C)C)C(=O)N[C@@H](C)C(=O)N[C@@H](Cc1c[nH]c2ccccc12)C(=O)N[C@@H](CC(C)C)C(=O)N[C@H](C(=O)N[C@@H](CCCNC(=N)N)C(=O)NCC(=O)N[C@@H](CCCNC(=N)N)C(=O)N[C@@H](CCCCNC(=O)COCCOCCNC(=O)COCCOCCNC(=O)C[C@@H](NC(=O)C1CCN(C(=O)CCCCCCCCCCCCCCCCC(=O)O)CC1)C(=O)O)C(N)=O)C(C)C` [Example 6, N-epsilon37-[2-(2-[2-(2-[2-(2-((R)-3-[1-(17-Carboxyheptadecanoyl)piperidin-4-ylcarbonylamino]3-carboxypropionylamino)ethoxy)ethoxy]acetylamino)ethoxy]ethoxy)acetyl][DesaminoHis7, Glu22 Arg26, Arg 34, Phe(m-CF3)28]GLP-1-(7-37)amide], the EC50 at 20 h (human, biotinylated human serum albumin on streptavidin-SPA beads, pH 7.4) fell in the range of 800 to 2000 nM.
